Key:
[1] = anaesthetic activity tests (intravenous administration); format: in vivo; conditions: compound and salts
Description: In the tests we have carried out, the compounds of the invention have been shown generally to be good anaesthetics, usually giving instantaneous induction of anaesthesia when administered intravenously. […] The compounds of the invention are of use for inducing anaesthesia which is to be maintained for example by an inhalation anaesthetic, such as ether, halothane, nitrous oxide or trichloroethylene. The compounds may also be capable of maintaining anaesthesia to a sufficient degree to enable surgical operations to be conducted without the aid of an inhalation anaesthetic, the anaesthesia being maintained if necessary by repeated or continuous administration. The compounds may have other desirable central nervous system depressant activities, for example they may be of use as sedatives.

[2] = dissolution of the 11β-aminoester salts in aqueous acid (Table 5 and Examples 101, 225-229); format: physicochemical
Method in brief: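 11β-Aminoester free base combined with 1 molar part of acid (citric acid as monohydrate) in water, with extra acid or prior ethanol co-evaporation in some methods. Solution made up to set weight, undissolved base collected and weighed to calculate dissolved amount. Solution pH measured.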

pH of the salt solutions = format: physicochemical
Method in brief: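 Aminoester free base mixed with 1 molar part acid in water, stirred or shaken, with extra acid or ethanol evaporation in some methods, then made up with water to set weight. Undissolved base collected and weighed to calculate dissolved base; solution membrane-filtered and pH measured.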

[3] = method D: 1 molar part acid, undissolved material weighed, WT. of solution 10 g, except Ex. 136: 8.95, 140: 9.52, 165 and 167: 10.1, 190 and 198: 9.8, 191: 8.9, 194: 6.6, 204: 10.09, 219: 10.6 g
[4] = aqueous solution of the salt, Table 5
[5] = method A: clear solution, 1 molar part acid, made up with water to WT. of solution 10 g, except Ex. 121 and 150: 12, 123: 12.3, 124: 7.5, 129: 10.3, 135 and 139: 8.95, 164: 10.35, 170: 10.4, 181: 10.04, 187: 9.5, 210: 10.2, 221: 15 g
[6] = method B: further acid added, undissolved material weighed, WT. of solution 10 g, except Ex. 130 and 141: 9.2, 142: 9.23, 143, 144, 189 and 199: 9.8, 149: 10.6, 153: 7.9, 162 and 188: 9.5, 163: 68, 166: 10.4, 168: 10.7, 169: 10.9, 183: 8.05, 184 and 201: 9.83, 185: 7.1, 186: 9.3, 192: 10.07, 193: 6.4, 195: 6.8, 196: 7, 197: 7.2, 200: 10.1, 206: 15 g
[7] = method C: ethanol evaporated, residue in water, undissolved material weighed, WT. of solution Ex. 118: 10, 120: 10.4, 148: 9.54, 152: 5.6, 154: 9.1, 155: 8.77, 156: 9.06, 157: 9.5, 158: 9.38, 159: 9.17, 179: 9.65, 180: 11.7, 182: 4.9, 202: 12.05, 213: 12, 214: 11.5, 215: 11.1, 216: 11.6, 217: 12.1 g

For `CCCCN(C)CC(=O)O[C@H]1C[C@]2(C)[C@@H](C(C)=O)CC[C@H]2[C@@H]2CC[C@H]3C[C@H](O)CC[C@]3(C)[C@H]21` [Example 111, 11β-(N-Butyl-N-methylaminoacetoxy)-3α-hydroxy-5α-pregnan-20-one], the “activity shown in our tests (preference grade)” value (“activity shown in our tests” for short) ([1]; listed as Compound No. 10) was “especially preferred”.
With `CC(=O)[C@H]1CC[C@H]2[C@@H]3CC[C@H]4C[C@H](O)CC[C@]4(C)[C@H]3[C@@H](OC(=O)CNCC(C)(C)C)C[C@]12C` [Example 34, 11β-N-2',2'-dimethylpropylaminoacetoxy-3α-hydroxy-5α-pregnan-20-one] the “activity shown in our tests” value [1] was “particularly preferred on account of the activity shown in our tests”.
For `CCN(CC(=O)O[C@H]1C[C@]2(C)[C@@H](C(C)=O)CC[C@H]2[C@@H]2CC[C@H]3C[C@H](O)CC[C@]3(C)[C@H]21)C(C)CC(C)C` (stereo partly drawn) [compound 23, 11β-N-1',3'-dimethylbutyl-N-ethylaminoacetoxy-3α-hydroxy-5α-pregnan-20-one], the “activity shown in our tests” value [1] was “particularly preferred on account of the activity shown in our tests”.
For `CCO[C@H]1C[C@@]2(C)[C@@H](CC[C@@H]3[C@@H]2[C@@H](OC(=O)CN(CC)CC)C[C@]2(C)[C@@H](C(C)=O)CC[C@@H]32)C[C@@H]1O` [Example 101, 2β-Ethoxy-11β-diethylaminoacetoxy-3α-hydroxy-5α-pregnan-20-one], the “activity shown in our tests” value ([1]; listed as Compound No. 6) was “especially preferred”.
For `CCO[C@H]1C[C@@]2(C)[C@@H](CC[C@@H]3[C@@H]2[C@@H](OC(=O)CNC(C)CC(C)C)C[C@]2(C)[C@@H](C(C)=O)CC[C@@H]32)C[C@@H]1O` (stereo partly drawn) [compound 29, 2β-ethoxy-3α-hydroxy-11β-N-1',3'-dimethylbutylaminoacetoxy-5α-pregnan-20-one], the “activity shown in our tests” value [1] was “particularly preferred on account of the activity shown in our tests”.
With `CCCN(CCC)CC(=O)O[C@H]1C[C@]2(C)[C@@H](C(C)=O)CC[C@H]2[C@@H]2CC[C@H]3C[C@H](O)CC[C@]3(C)[C@H]21` [Example 218] the Dissolved aminoester ([2]; method C, 0.9% w/v saline in place of water, WT. of solution 95 g) was 951 mg and the pH (pH of the salt solutions; solution of the salt in saline, before any adjustment) was 3.38.
Work on `CC(=O)[C@H]1CC[C@H]2[C@@H]3CC[C@H]4C[C@H](O)CC[C@]4(C)[C@H]3[C@@H](OC(=O)CNC(C)CC(C)C)C[C@]12C` (some centres unmarked) [Example 140] yielded a Dissolved aminoester [2, 3] of 80.7 mg and a pH (pH of the salt solutions; [4]) of 3.59.
Work on `CO[C@H]1C[C@@]2(C)[C@@H](CC[C@@H]3[C@@H]2[C@@H](OC(=O)CN2CCCCC2)C[C@]2(C)[C@@H](C(C)=O)CC[C@@H]32)C[C@@H]1O` [Example 123] yielded a Dissolved aminoester [2, 5] of 122 mg and a pH (pH of the salt solutions; [4]) of 3.6.
Compound `CC(=O)[C@H]1CC[C@H]2[C@@H]3CC[C@H]4C[C@H](O)CC[C@]4(C)[C@H]3[C@@H](OC(=O)CN(C)CCc3ccccc3)C[C@]12C` [Example 126] has a Dissolved aminoester [2, 6] of 56 mg and a pH (pH of the salt solutions; [4]) of 2.65.
In the case of `CCN(CC(=O)O[C@H]1C[C@]2(C)[C@@H](C(C)=O)CC[C@H]2[C@@H]2CC[C@H]3C[C@H](O)CC[C@]3(C)[C@H]21)C(C)CC(C)C` (some centres unmarked) [Example 197], the Dissolved aminoester [2, 6] is reported as 63 mg and the pH (pH of the salt solutions; [4]) is reported as 2.99.
`CCN(CC)CC(=O)O[C@H]1C[C@]2(C)[C@@H](C(C)=O)CC[C@H]2[C@@H]2CC[C@H]3C[C@H](O)[C@@H](Cl)C[C@]3(C)[C@H]21` [Example 202] gave a Dissolved aminoester [2, 7] of 120.5 mg and a pH (pH of the salt solutions; [4]) of 3.65.
`CC(=O)[C@H]1CC[C@H]2[C@@H]3CC[C@H]4C[C@H](O)CC[C@]4(C)[C@H]3[C@@H](OC(=O)CNC(C(C)C)C(C)C)C[C@]12C` [Example 144] gave a Dissolved aminoester [2, 6] of 61 mg and a pH (pH of the salt solutions; [4]) of 2.79.
`CC(=O)[C@H]1CC[C@H]2[C@@H]3CC[C@H]4C[C@H](O)CC[C@]4(C)[C@H]3[C@@H](OC(=O)CN(C)C3CC3)C[C@]12C` [Example 193] gave a Dissolved aminoester [2, 6] of 23 mg and a pH (pH of the salt solutions; [4]) of 2.46.
In the case of `CC(=O)[C@H]1CC[C@H]2[C@@H]3CC[C@H]4C[C@H](O)CC[C@]4(C)[C@H]3[C@@H](OC(=O)CN(C)C(C)CCC(C)C)C[C@]12C` (some centres unmarked) [Example 192], the Dissolved aminoester [2, 6] is reported as 100.7 mg and the pH (pH of the salt solutions; [4]) is reported as 3.00.
For `CC(=O)[C@H]1CC[C@H]2[C@@H]3CC[C@H]4C[C@H](O)CC[C@]4(C)[C@H]3[C@@H](OC(=O)CN3CC4CCC(CC4)C3)C[C@]12C` [Example 160], the Dissolved aminoester ([2]; method E: as C with further acid, WT. of solution Ex. 160: 6.12, 161: 7.8, 203: 12.7, 212: 12.125, 220: 10 g) was 80.6 mg and the pH (pH of the salt solutions; [4]) was 2.6.
With `CCCCN(CC)CC(=O)OC1CC2(C)C(C(C)=O)CCC2C2CCC3CC(O)C(C)CC3(C)C12` (centres unmarked) [Example 174] the Dissolved aminoester [2, 6] was 100 mg and the pH (pH of the salt solutions; [4]) was 2.90.
In the case of `CCN(CC)CC(=O)O[C@H]1C[C@]2(C)[C@@H](C(C)=O)CC[C@H]2[C@@H]2C[C@@H](C)[C@H]3C[C@H](O)CC[C@]3(C)[C@H]21` [Example 171], the Dissolved aminoester [2, 5] is reported as 100 mg and the pH (pH of the salt solutions; [4]) is reported as 3.4.
In the case of `CC(=O)C1C(C)CC2C3CCC4CC(O)CCC4(C)C3C(OC(=O)CN3CCC(C)CC3)CC21C` (centres unmarked) [Example 178], the Dissolved aminoester [2, 5] is reported as 100 mg and the pH (pH of the salt solutions; [4]) is reported as 3.6.
For `CCC(C)CN(C)CC(=O)O[C@H]1C[C@]2(C)[C@@H](C(C)=O)CC[C@H]2[C@@H]2CC[C@H]3C[C@H](O)CC[C@]3(C)[C@H]21` (some centres unmarked) [Example 186], the Dissolved aminoester [2, 6] was 75 mg and the pH (pH of the salt solutions; [4]) was 2.85.
Work on `CCC(C)N(CC(=O)O[C@H]1C[C@]2(C)[C@@H](C(C)=O)CC[C@H]2[C@@H]2CC[C@H]3C[C@H](O)CC[C@]3(C)[C@H]21)C(C)CC` (some centres unmarked) [Example 147] yielded a Dissolved aminoester [2, 6] of 85 mg and a pH (pH of the salt solutions; [4]) of 2.03.
For `CCCCN(CC)CC(=O)O[C@H]1C[C@]2(C)[C@@H](C(C)=O)CC[C@H]2[C@@H]2CC[C@H]3C[C@H](O)CC[C@]3(C)[C@H]21` [Example 115, 11β-(N-Butyl-N-ethylaminoacetoxy)-3α-hydroxy-5α-pregnan-20-one], the “activity shown in our tests” value ([1]; listed as Compound No. 12) was “especially preferred”.
In the case of `CCN(CC)CC(=O)O[C@H]1C[C@]2(C)[C@@H](C(C)=O)CC[C@H]2[C@@H]2CC[C@H]3C[C@H](O)CC[C@]3(C)[C@H]21` [Example 152], the Dissolved aminoester [2, 7] is reported as 55.95 mg and the pH (pH of the salt solutions; [4]) is reported as 3.6.
`CCC(C)N(C)CC(=O)O[C@H]1C[C@]2(C)[C@@H](C(C)=O)CC[C@H]2[C@@H]2CC[C@H]3C[C@H](O)CC[C@]3(C)[C@H]21` (some centres unmarked) [Example 184] gave a Dissolved aminoester [2, 6] of 94.5 mg and a pH (pH of the salt solutions; [4]) of 3.0.
For `CC(=O)[C@H]1CC[C@H]2[C@@H]3CC[C@H]4C[C@H](O)CC[C@]4(C)[C@H]3[C@@H](OC(=O)CN3CCCC(C)C3)C[C@]12C` (some centres unmarked) [Example 157], the Dissolved aminoester [2, 7] was 95 mg and the pH (pH of the salt solutions; [4]) was 3.59.
With `CCC(C)NCC(=O)O[C@H]1C[C@]2(C)[C@@H](C(C)=O)CC[C@H]2[C@@H]2CC[C@H]3C[C@H](O)CC[C@]3(C)[C@H]21` (some centres unmarked) [Example 139] the Dissolved aminoester [2, 5] was 89.5 mg and the pH (pH of the salt solutions; [4]) was 3.76.
With `CCCN(CCC)CC(=O)O[C@H]1C[C@]2(C)[C@@H](C(C)=O)CC[C@H]2[C@@H]2CC[C@H]3C[C@H](O)CC[C@]3(C)[C@H]21` [Example 219] the Dissolved aminoester [2, 3] was 106 mg and the pH (pH of the salt solutions; [4]) was 3.77.
Compound `CCCN(CCC)CC(=O)O[C@H]1C[C@]2(C)[C@@H](C#N)CC[C@H]2[C@@H]2CC[C@H]3C[C@H](O)CC[C@]3(C)[C@H]21` [Example 206] has a Dissolved aminoester [2, 6] of 84 mg and a pH (pH of the salt solutions; [4]) of 2.7.
With `CCCN(CCC)CC(=O)O[C@H]1C[C@]2(C)[C@@H](C(C)=O)CC[C@H]2[C@@H]2CC[C@H]3C[C@H](O)[C@@H](OCC)C[C@]3(C)[C@H]21` [Example 120] the Dissolved aminoester [2, 7] was 87 mg and the pH (pH of the salt solutions; [4]) was 3.5.

From patent US4192871A, “Chemical compounds” (Glaxo Laboratories Limited, priority 1976, dated 1980)
